Data on one substance can be found in patent publication US20250352524A1, “PREVENTION OF METASTATIC OUTGROWTH USING TEAD INHIBITORS” (Georgetown University, priority 2024, published 2025).

Common to all, as to assay type: cell-based, mouse
Data set [1] deals with bone marrow-derived macrophages. The data set is described as follows: Cytokine array of conditioned media, bone marrow-derived macrophages. To be noted: 1 μM VT107 for 24 hours. The text has this:
Due to the shifts in immune signaling observed in the lung tissue upon TEAD inhibition (FIG. 9), immune cell populations were first analyzed by flow cytometry in the lungs and spleens of tumor naïve mice. Consistent with the Cibersort analysis of RNA-seq data, there was a decrease in the monocytes population and an increase in the tissue-resident alveolar macrophages (AM) (FIG. 10, Panel A). […] Next, it was sought to determine the specific effects of iTEAD treatment on lung resident versus bone-marrow derived macrophages, as the dynamics of these cell populations are crucial for the establishment of the metastatic niche (Ries et al., 2014; Qian et al., 2011). Macrophages were retrieved from the lungs by isolating F4/80+ cells, a specific marker for murine macrophages, by FACS (fluorescence-activated cell sorting) as well as bone marrow-derived macrophages from the femurs of naïve C57BL/6 mice that were then differentiated in vitro using macrophage colony stimulating factor (M-CSF). Macrophages were treated with 1 μM of VT107 for 24 hours before the conditioned media was collected and analyzed on a cytokine array. […] There was no change in the level of the other cytokines detected (FIG. 10, Panel B). […]

Data set [2] concerns peritoneal macrophages and T-cells. The data set is described as follows: Cytokine array, pretreated peritoneal macrophages mixed with T-cells. The text has this: To investigate whether the effect of iTEAD treatment on macrophages can enhance their crosstalk with T-cells in the lung microenvironment, peritoneal macrophages+/−iTEAD were first isolated and characterized as a model of resident macrophages for ex vivo experiments (FIG. 14, Panel A). It was observed that treatment with VT107 decreased gene expression of M2-like and fibrosis regulators, Aldh1a1 and Cc117 (Chen et al., 2020), as well as TEAD4 and its downstream target gene Ankrd1. […] The iTEAD pretreated peritoneal macrophages and untreated T-cells isolated from the spleen of tumor naïve mice (FIG. 14, Panel A) were then mixed for 5 hours before collecting the conditioned media for analysis. […] Next, these immune cell mixes were added to 4T1 spheres that were embedded into matrix. […] This effect was reversed by an IL12 neutralizing antibody. No change in cleaved caspase-3 in 4T1 cells in the presence of VT107-treated T-cells or macrophages alone, was detected at 24 hours (FIG. 14, Panels C and D). 4T1 cells were then plated and allowed to attach on electrode-coated arrays to monitor cancer cell viability before the addition of macrophages+/−iTEAD and T-cells. […] This reversal of T-cell cytotoxicity by IL12 antibodies was not observed in VT107-treated T-cells in the absence of macrophages (FIG. 15, Panel E) indicating a critical role for IL12 in the crosstalk between macrophages and T-cells.
Cells were grown in their recommended cell culture media and treated with […] VT107 for 24 or 72 hours. Conditioned media was collected and passed through a 0.2 micron PES filter then analyzed on a RayBio® Mouse Cytokine Array (#AAM-TCR-1) according to the manufacture's protocol. The array includes two spots for each cytokine. The luminescence signal was normalized to the positive control on each membrane, then to the vehicle treatment signal of each cytokine.

A further data set has as its system 4T1 cancer cells. The data set is described as follows: Real Time Cell Analysis, cytotoxicity of T-cells +/- macrophages towards 4T1 cells. From the text:
To investigate whether the effect of iTEAD treatment on macrophages can enhance their crosstalk with T-cells in the lung microenvironment, peritoneal macrophages+/−iTEAD were first isolated and characterized as a model of resident macrophages for ex vivo experiments (FIG. 14, Panel A). It was observed that treatment with VT107 decreased gene expression of M2-like and fibrosis regulators, Aldh1a1 and Cc117 (Chen et al., 2020), as well as TEAD4 and its downstream target gene Ankrd1. […] The iTEAD pretreated peritoneal macrophages and untreated T-cells isolated from the spleen of tumor naïve mice (FIG. 14, Panel A) were then mixed for 5 hours before collecting the conditioned media for analysis. […] Next, these immune cell mixes were added to 4T1 spheres that were embedded into matrix. […] This effect was reversed by an IL12 neutralizing antibody. No change in cleaved caspase-3 in 4T1 cells in the presence of VT107-treated T-cells or macrophages alone, was detected at 24 hours (FIG. 14, Panels C and D). 4T1 cells were then plated and allowed to attach on electrode-coated arrays to monitor cancer cell viability before the addition of macrophages+/−iTEAD and T-cells. […]
Cell analysis was done using E-plates from xCELLigence, (Agilent, #5469830001) according to the manufacturer's protocol. […] Cell index was measured by changes in electric impedance at 15 min intervals. […]

Where [3] appears, read: macrophages pretreated 24 hrs with 1 μM VT107, mixed with untreated T-cells 5 hours.
The mark [4] stands for this setting: treated overnight with 1 μM VT107.

VT107: in data set [1], the “secreted IL4 levels” value is “reduced” and the “secreted IL12” value is “no effect”. Further, in data set [2] (setting [3]), the “IL6 level in the cell mix” value is given as “significantly increased” and the “IL12 level in the cell mix” value is “significantly increased”. Further, in data set [2] (setting [4]), the “IL4 in T-cells” value is “slightly increased” and the “IL12 or IL6 levels in macrophages or T-cells alone” value is listed as “No significant change”. The “cytotoxicity of T-cells alone” value in the data set on 4T1 cancer cells (extended VT107 treatment) is given as “slight increase”. For the same substance, the “T-cells' cytotoxicity towards 4T1 cells” value with 4T1 cancer cells (macrophages pretreated 24 hrs with 1 μM VT107, compared to T-cells alone) is given as “significantly increased”.
